Measured values reported in patent publication US20050208000A1, “Compositions and methods for prevention of photoaging” (priority 1999, published 2005).

Test system: human elastin promoter
Assay: Transgenic mouse model of photoaging: human elastin promoter/CAT reporter activity in skin after solar simulating radiation
Type: in vivo, mice
Text: A transgenic mouse model which contains the human elastin promoter linked to a chloramphenicol acetyltransferase (CAT) reporter gene for testing compounds that may inhibit cutaneous photodamage has been developed. These mice express human elastin promoter activity in a tissue-specific and developmentally regulated manner. […] In addition, quantitative data can be obtained after only a single exposure to ultraviolet radiation. A test compound is applied to the skin of a transgenic mouse capable of expressing the human elastin promoter. The transgenic mouse is then exposed to solar radiation and human elastin promoter activity in the mouse is determined. The human elastin promoter activity is then compared to that in transgenic mice also exposed to an equivalent dose of solar radiation which were not treated with the test compound to determine whether or not the test compound provided protection against the solar radiation. […]
Using this transgenic mouse line, the ability of alpha 1-antitrypsin to inhibit the effects of solar radiation on human elastin promoter activity was determined. […]
To measure the expression of the human elastin promoter/CAT reporter gene construct in the skin of transgenic, mice and in fibroblast cultures established from these animals, CAT activity was determined. […]

Substance: alpha 1-antitrypsin
- reduction in CAT activity (topical 20 mg/ml alpha 1-antitrypsin in goat's milk versus goat's milk alone, 20 MEDs SSR on three consecutive days): 69%
- Relative increase in CAT activity (mean+S.D.) (transgenic mice, topical application to the back about 15 min before 20 MEDs SSR, three consecutive days, skin harvested 24 hours after third phototreatment, baseline of unirradiated untreated control mice standardized to one): 4.5+1.0
